Data reported in article PMC7998658, “Phloridzin Acts as an Inhibitor of Protein-Tyrosine Phosphatase MEG2 Relevant to Insulin Resistance” (Molecules, 2021).
Blank lines part the entries; values can stand above or below the molecule they belong to.

Experiments:
[1] = target: T1, PTP-MEG2 (megakaryocyte protein tyrosine phosphatase 2, PTPN9) (Homo sapiens, UniProt P43378); assay: SPR on immobilized purified PTP-MEG2; also DiFMUP enzyme inhibition, IC50 =[…], slow-binding
T1 sequence (P43378 1-593): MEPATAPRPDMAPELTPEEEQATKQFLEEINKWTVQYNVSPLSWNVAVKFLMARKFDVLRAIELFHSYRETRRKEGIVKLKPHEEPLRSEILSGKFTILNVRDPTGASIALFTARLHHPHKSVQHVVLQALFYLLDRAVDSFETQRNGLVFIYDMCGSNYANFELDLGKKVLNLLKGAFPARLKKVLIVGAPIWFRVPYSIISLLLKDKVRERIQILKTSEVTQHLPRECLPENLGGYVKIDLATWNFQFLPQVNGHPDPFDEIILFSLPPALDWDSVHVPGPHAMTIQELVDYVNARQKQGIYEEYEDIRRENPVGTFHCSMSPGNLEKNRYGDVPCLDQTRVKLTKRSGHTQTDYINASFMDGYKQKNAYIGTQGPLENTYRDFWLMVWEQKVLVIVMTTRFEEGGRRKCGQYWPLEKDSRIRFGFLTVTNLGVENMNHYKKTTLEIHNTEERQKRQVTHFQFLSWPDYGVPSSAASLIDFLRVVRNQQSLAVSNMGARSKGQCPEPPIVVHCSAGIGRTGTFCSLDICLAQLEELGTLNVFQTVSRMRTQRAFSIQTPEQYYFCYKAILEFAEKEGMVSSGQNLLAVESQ

[2] = substrate: Cc1cc(=O)oc2c(F)c(OP(=O)(O)O)c(F)cc12; assay: fluorogenic substrate hydrolysis by purified enzyme; Km from Lineweaver-Burk plots; type: biochemical, Homo sapiens
Method: fluorogenic substrate hydrolysis by purified enzyme; Km from Lineweaver-Burk plots on PTP-MEG2 (megakaryocyte protein tyrosine phosphatase 2, PTPN9) | kinetic constants of PTP-MEG2 were determined using DiFMUP as a fluorogenic PTP substrate

Kd [1]: 4.66 µM
Molecule: O=C(CCc1ccc(O)cc1)c1c(O)cc(O)cc1O[C@@H]1O[C@H](CO)[C@@H](O)[C@H](O)[C@H]1O [phloridzin]

B1: PTP-MEG2 (megakaryocyte protein tyrosine phosphatase 2, PTPN9) (Homo sapiens) (protein)
chain: T1 sequence (P43378 1-593)
Km [2]: 163.1 µM
